Values of other authors in patent US7964610B2, “Buprenorphine derivatives and uses thereof” (Reckitt Benckiser Healthcare (UK) Limited, priority 2006, dated 2011).

## CO[C@]12CCC3(C[C@@H]1[C@](C)(O)C(C)(C)C)[C@H]1Cc4ccc(O)c5c4[C@@]3(CCN1CC1CC1)[C@H]2O5 [buprenorphine]
Oral (swallowed)
  bioavailability when taken orally: ~5%
sublingual
  bioavailability when absorbed sublingually: approximately fifty
